Reference: ChEMBL document CHEMBL1208782, “Synthesis and pharmacological validation of a novel series of non-steroidal FXR agonists” (Bioorg Med Chem Lett, 2010)
pEC50: −log10 of the molar value.

Assays:
Assay type in all cases: functional, cell-based
Estrogen receptor beta = Estrogen receptor beta (Homo sapiens, UniProt Q92731); test: Agonist activity at ERbeta-LBD expressed in HEK293 cells assessed as Gal4-DBD interaction by cellular mammalian one hybrid assay relative to estradiol
[1] = target: T1, Oxysterols receptor LXR-beta (Homo sapiens) (UniProt P55055); test: Agonist activity at LXRbeta-LBD expressed in HEK293 cells assessed as Gal4-DBD interaction by cellular mammalian one hybrid assay relative to T0901317
T1 sequence (whole entry): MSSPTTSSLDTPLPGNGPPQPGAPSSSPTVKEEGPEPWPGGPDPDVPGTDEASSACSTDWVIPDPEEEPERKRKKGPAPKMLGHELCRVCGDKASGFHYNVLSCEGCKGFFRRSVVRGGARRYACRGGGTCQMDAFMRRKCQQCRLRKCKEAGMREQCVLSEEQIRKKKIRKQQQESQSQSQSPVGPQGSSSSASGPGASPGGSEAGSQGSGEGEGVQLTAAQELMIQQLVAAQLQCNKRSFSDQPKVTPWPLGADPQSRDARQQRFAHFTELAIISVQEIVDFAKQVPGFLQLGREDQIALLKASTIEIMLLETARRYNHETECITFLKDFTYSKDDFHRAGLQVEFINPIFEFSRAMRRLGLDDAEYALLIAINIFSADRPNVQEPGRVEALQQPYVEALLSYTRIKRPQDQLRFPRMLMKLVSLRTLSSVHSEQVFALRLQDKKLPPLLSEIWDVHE

Androgen receptor = target: T2, Androgen receptor (Homo sapiens, UniProt P10275); test: Agonist activity at androgen receptor-LBD expressed in HEK293 cells assessed as Gal4-DBD interaction by cellular mammalian one hybrid assay
T2 sequence (P10275 whole entry): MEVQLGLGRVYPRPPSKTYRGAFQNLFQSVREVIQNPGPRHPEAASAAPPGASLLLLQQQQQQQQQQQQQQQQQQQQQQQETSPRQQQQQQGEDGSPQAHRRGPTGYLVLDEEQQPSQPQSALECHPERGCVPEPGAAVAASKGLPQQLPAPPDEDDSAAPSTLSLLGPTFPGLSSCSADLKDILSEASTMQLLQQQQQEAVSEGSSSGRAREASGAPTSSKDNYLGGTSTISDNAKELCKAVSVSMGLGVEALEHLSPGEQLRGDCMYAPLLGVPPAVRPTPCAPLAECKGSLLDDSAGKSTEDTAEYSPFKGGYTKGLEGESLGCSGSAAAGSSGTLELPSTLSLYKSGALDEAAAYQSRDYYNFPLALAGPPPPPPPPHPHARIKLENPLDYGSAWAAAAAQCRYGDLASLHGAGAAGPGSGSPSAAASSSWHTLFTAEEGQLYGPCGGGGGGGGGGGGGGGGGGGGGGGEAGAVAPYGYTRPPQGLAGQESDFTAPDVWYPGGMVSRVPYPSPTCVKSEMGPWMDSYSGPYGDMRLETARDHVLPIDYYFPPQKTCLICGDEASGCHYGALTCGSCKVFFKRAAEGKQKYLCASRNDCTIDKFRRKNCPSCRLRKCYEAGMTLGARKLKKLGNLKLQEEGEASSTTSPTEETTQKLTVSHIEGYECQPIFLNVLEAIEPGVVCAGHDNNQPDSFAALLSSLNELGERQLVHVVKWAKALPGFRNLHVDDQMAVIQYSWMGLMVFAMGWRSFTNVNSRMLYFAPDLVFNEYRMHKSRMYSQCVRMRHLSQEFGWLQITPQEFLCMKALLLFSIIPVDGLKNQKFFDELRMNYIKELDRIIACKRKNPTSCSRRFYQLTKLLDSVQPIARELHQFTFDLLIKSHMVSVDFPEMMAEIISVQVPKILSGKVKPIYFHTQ

[2] = target: T3, Thyroid hormone receptor alpha (Homo sapiens, UniProt P10827); test: Agonist activity at TRalpha-LBD expressed in HEK293 cells assessed as Gal4-DBD interaction by cellular mammalian one hybrid assay
T3 sequence (P10827 whole entry): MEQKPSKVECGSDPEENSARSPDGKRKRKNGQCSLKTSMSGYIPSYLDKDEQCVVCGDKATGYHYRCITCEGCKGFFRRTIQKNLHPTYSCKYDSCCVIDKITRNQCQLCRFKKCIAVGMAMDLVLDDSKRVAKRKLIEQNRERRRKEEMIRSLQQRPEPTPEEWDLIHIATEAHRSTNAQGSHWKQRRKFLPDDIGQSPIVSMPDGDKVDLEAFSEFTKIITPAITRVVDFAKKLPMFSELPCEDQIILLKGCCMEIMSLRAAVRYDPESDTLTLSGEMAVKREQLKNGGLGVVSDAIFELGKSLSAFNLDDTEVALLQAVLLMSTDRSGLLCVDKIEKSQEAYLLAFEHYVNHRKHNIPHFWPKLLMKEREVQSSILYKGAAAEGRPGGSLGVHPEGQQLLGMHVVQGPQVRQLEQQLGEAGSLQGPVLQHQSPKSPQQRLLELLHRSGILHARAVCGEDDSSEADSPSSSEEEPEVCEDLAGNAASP

[3] = target: T4, Progesterone receptor (Homo sapiens) (UniProt P06401); test: Agonist activity at progesterone receptor-LBD expressed in HEK293 cells assessed as Gal4-DBD interaction by cellular mammalian one hybrid assay relative to progesterone
T4 sequence (whole entry): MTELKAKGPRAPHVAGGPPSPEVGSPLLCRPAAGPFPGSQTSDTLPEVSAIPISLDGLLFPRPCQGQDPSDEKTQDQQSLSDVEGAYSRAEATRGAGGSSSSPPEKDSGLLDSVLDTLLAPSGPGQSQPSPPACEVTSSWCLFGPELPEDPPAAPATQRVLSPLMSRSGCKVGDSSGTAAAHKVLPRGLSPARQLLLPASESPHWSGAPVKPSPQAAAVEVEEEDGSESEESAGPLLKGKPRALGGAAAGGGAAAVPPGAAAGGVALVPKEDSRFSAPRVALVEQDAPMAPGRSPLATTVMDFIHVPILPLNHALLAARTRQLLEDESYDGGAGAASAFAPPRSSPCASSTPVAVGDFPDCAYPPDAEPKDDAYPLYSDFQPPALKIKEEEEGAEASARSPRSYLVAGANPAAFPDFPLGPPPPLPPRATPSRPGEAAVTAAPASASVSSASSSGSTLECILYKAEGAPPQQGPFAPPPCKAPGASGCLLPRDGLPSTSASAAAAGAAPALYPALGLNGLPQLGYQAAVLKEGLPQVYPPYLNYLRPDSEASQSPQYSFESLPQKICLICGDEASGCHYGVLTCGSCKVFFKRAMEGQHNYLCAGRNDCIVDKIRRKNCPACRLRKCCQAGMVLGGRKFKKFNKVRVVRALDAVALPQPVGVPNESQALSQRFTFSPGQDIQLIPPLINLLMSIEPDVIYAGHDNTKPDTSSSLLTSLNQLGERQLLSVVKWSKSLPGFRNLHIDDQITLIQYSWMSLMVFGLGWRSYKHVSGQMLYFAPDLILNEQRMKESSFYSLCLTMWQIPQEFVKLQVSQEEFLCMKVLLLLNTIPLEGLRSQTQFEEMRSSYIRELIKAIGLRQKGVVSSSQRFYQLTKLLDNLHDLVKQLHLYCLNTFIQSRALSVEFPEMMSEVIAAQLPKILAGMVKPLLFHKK

Chain of Estrogen receptor beta (Q92731 whole entry, the tested form may be a part): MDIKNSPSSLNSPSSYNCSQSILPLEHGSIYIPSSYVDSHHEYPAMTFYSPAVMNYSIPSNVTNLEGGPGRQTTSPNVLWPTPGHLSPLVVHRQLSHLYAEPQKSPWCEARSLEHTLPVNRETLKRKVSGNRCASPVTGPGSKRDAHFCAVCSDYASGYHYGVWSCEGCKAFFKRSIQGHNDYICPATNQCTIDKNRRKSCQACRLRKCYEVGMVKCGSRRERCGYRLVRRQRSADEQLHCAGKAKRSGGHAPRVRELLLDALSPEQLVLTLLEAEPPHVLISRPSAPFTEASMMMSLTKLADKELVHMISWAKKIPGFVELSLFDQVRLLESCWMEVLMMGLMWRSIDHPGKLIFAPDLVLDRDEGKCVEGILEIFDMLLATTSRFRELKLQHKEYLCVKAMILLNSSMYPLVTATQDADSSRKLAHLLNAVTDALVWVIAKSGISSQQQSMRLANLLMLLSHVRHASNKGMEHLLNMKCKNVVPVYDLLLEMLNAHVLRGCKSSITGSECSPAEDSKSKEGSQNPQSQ

**Q.** Which results are given for `CN(Cc1ccc(C(=O)O)cc1)c1ccc(OCc2c(-c3c(Cl)cccc3Cl)noc2C2CC2)nc1C(F)(F)F`?
**A.** Efficacy (Estrogen receptor beta): 0%; Efficacy [1]: 0%; pEC50 (Androgen receptor): < 5.00; pEC50 [2]: < 5.00; Efficacy [3]: 0%

**Q.** What does the source list for `CN(Cc1cccc(C(=O)O)c1)c1ccc(OCc2c(-c3c(Cl)cccc3Cl)noc2C2CC2)nc1C(F)(F)F`?
**A.** Efficacy (Estrogen receptor beta): 20%; Efficacy [1]: 0%; pEC50 (Androgen receptor): < 5.00; pEC50 [2]: < 5.00; Efficacy [3]: 0%

**Q.** Which results are given for `CC(C)c1onc(-c2c(Cl)cccc2Cl)c1COc1ccc(N(C)Cc2ccc(C(=O)O)cc2)c(C(F)(F)F)n1`?
**A.** Efficacy (Estrogen receptor beta): 0%; Efficacy [1]: 0%; pEC50 (Androgen receptor): < 5.00; pEC50 [2]: < 5.00; Efficacy [3]: 0%
